Assay results from US11174245B2, “Benzimidazole compounds and derivatives as EGFR inhibitors” (Boehringer Ingelheim International GmbH, priority 2018, dated 2021).
Like-named read-outs stand apart in the source and are kept apart here.

How the values were obtained:
[1] = molecular target: EGFR del19 T790M C797S protein in Ba/F3 cells (Homo sapiens, UniProt P00533, C797S/DEL746-750/T790M); experiment: pEGFR assay (AlphaScreen Surefire, EGFR Tyr1068 phosphorylation); type: cell-based
Method: Transduced cells were selected using puromycin. Following selection, IL-3 was withdrawn and IL-3 independent cells cultured. p-EGFR Tyr1068 was determined using the AlphaScreen Surefire pEGF Receptor (Tyr1068) Assay (PerkinElmer, TGRERS). […] Subsequently, 60.000 cells/well in 60 μL were added. Cells were incubated with compound for 4 h at 37° C. […] The mixture was incubated at room temperature with shaking (700 rpm) for 20 min. After centrifugation, 4 μL of the lysate were transferred to Proxiplates. […] Plates were shaken for 1 min (1400 rpm) and incubated for 2 h at room temperature in the dark.
The results of the assay are provided as IC50 values (see table 12).

EGFR wt = EGFR wt (Homo sapiens (Human), UniProt P00533); experiment: Biochemical EGFR inhibition assay (TR-FRET, poly-GT substrate), EGFR wt
Method: (§1) Biochemical EGFR Inhibition Assays
(§2) Initially, the inhibitory effect of compounds according to the invention is measured in biochemical assays which measure the phosphorylation activity of EGFR enzyme forms on poly-GT substrate in the presence of different concentrations of ATP (5 μM and 100 μM final assay concentration).
(§3) The following enzyme forms of EGFR are representative examples that can be used in these assays at the given concentrations:
(§4) For the chosen highest assay concentration of 100 μM, 150 nL of compound solution is transferred from a 10 mM DMSO compound stock solution. A series of eleven fivefold dilutions per compound is transferred to the assay plate, compound dilutions are tested in duplicates. DMSO is added as backfill to a total volume of 150 nL. The assay runs on a fully automated robotic system.
(§5) These biochemical EGFR enzyme form compound dose-response assays quantify the kinase activity via phosphorylation of a tagged poly-GT substrate. The results of the assay are provided as IC50 values.

[2] = molecular target: EGFR (mutated) 695-1022, T790M, C797S, L858R (Homo sapiens (Human), UniProt P00533, C797S/L858R/T790M); experiment: Biochemical EGFR inhibition assay (TR-FRET, poly-GT substrate), EGFR T790M C797S L858R
Method: as §1, §2, §3, §4, §5

[3] = read-out: wt (5 μM ATP) IC50, 5 μM ATP
[4] = read-out: LR_TM_CS (5 μM ATP) IC50, 5 μM ATP
[5] = read-out: wt (100 μM ATP) IC50, 100 μM ATP
[6] = read-out: LR_TM_CS (100 μM ATP) IC50, 100 μM ATP

Sequence of EGFR wt (P00533 25-1210): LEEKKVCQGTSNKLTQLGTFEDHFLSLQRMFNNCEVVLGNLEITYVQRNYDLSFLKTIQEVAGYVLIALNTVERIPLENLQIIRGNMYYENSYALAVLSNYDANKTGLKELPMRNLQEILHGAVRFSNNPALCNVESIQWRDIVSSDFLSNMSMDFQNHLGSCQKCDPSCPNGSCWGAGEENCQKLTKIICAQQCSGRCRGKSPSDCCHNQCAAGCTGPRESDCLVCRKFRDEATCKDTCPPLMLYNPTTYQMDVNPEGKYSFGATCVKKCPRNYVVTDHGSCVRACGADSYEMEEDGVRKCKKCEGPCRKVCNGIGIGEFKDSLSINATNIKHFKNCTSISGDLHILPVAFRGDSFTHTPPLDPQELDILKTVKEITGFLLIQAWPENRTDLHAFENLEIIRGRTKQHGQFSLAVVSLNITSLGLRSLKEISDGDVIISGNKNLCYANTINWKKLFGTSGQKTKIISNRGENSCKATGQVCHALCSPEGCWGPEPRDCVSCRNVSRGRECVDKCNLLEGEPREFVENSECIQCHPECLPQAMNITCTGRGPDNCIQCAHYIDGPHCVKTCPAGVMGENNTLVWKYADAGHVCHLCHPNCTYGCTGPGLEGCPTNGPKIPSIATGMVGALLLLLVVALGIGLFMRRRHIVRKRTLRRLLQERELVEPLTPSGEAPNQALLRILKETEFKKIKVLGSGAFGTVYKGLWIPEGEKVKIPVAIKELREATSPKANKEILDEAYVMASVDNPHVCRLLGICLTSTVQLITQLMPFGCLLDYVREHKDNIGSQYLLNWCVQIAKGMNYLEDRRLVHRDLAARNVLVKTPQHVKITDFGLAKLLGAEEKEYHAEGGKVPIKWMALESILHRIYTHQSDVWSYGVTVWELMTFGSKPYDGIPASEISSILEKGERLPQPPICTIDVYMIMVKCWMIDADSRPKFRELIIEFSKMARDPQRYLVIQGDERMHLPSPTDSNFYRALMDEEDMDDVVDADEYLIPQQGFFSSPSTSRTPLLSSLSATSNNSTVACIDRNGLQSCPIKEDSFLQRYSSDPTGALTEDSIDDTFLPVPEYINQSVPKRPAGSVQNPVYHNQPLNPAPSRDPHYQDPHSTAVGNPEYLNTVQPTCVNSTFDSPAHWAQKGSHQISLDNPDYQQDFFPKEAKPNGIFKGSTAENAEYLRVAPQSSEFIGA
Sequence of EGFR (mutated) 695-1022, T790M, C797S, L858R (P00533 695-1022 T790M/C797S/L858R): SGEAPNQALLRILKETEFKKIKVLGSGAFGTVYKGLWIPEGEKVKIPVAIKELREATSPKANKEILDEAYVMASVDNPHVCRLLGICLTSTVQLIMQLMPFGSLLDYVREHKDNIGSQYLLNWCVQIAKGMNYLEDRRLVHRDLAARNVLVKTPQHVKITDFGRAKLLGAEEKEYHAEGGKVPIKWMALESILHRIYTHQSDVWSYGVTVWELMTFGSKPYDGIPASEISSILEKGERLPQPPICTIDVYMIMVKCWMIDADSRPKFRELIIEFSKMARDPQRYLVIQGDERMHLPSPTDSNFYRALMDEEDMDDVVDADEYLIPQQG
Sequence of EGFR del19 T790M C797S protein in Ba/F3 cells (P00533 with tags, fused parts or gaps C797S/DEL746-750/T790M limits assumed): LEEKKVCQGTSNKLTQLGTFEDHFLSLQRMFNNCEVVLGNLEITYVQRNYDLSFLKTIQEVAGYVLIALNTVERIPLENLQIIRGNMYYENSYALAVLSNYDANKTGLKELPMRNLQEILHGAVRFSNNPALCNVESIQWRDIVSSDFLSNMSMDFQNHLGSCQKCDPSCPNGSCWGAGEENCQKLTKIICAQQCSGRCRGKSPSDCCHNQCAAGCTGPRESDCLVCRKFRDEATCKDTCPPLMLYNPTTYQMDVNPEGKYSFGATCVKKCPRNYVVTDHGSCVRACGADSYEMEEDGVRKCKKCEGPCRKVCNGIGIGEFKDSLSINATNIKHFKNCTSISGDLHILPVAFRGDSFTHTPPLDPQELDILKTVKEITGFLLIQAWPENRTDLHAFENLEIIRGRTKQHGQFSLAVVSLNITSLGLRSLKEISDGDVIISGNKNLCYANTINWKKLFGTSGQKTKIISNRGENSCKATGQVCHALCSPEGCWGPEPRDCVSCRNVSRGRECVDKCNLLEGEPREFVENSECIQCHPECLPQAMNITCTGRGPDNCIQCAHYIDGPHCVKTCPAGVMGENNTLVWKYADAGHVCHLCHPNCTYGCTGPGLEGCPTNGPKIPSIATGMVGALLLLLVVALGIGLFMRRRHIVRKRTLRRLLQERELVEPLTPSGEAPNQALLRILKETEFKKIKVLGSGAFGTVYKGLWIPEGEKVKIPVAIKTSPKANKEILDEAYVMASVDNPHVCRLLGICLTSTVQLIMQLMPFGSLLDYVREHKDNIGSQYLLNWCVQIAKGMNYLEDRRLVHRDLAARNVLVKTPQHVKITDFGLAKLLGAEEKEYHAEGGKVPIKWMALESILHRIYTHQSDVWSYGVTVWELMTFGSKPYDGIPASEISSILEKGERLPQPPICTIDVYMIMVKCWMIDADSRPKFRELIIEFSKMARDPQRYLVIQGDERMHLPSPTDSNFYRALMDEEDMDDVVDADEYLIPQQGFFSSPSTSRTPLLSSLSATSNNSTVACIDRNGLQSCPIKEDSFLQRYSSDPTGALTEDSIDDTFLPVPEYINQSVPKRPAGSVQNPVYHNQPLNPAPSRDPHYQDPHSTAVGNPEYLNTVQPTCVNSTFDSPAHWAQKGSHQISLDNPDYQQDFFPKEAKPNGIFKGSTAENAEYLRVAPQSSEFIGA

SMILES | IC50 [1] [nM] | IC50 (EGFR wt; [3]) [nM] | IC50 [2, 4] [nM] | IC50 (EGFR wt; [5]) [nM] | IC50 [2, 6] [nM]
Cn1cc(-c2cc(C(=O)/N=c3\[nH]c4cc(CCCO)ccc4n3CC(C)(C)O)ccn2)cn1 [I-184] | 19 | 1520 | 7.8 | – | –
Cn1cc(-c2cc(C(=O)/N=c3\[nH]c4ccccc4n3[C@H]3CC[C@@H](O)CC3)cc(Cl)n2)cn1 [I-146] | 5 | 1540 | 2.8 | – | –
CC(C)(O)Cn1/c(=N/C(=O)c2ccnc(-c3cccn4cnnc34)c2)[nH]c2ccccc21 [I-91] | 16 | 14700 | 61.1 | – | –
O=C(/N=c1\[nH]c2ccccc2n1[C@H]1CC[C@@H](O)CC1)c1ccnc(-c2coc3cccnc23)c1 [I-156] | 5 | 3150 | 13.3 | – | –
Cc1cc(C(=O)/N=c2\[nH]c3ccc(CN4CCOCC4)cc3n2CC(C)(C)O)cc(-c2cnn(C)c2)n1 [I-213] | 45 | > 100000 | 54.1 | – | –
Cn1cc(-c2cc(C(=O)/N=c3\[nH]c4ccccc4n3[C@H]3CC[C@@H](O)CC3)cc(CF)n2)cn1 [I-216] | 17 | 2670 | 8.1 | – | –
Cn1cc(-c2cc(C(=O)/N=c3\[nH]c4cc(CC#N)ccc4n3CC(C)(C)O)ccn2)cn1 [I-199] | 15 | 1520 | 6.8 | – | –
O=C(/N=c1\[nH]c2ccccc2n1[C@H]1CC[C@@H](O)CC1)c1ccnc(-c2ccccc2OC(F)F)c1 [I-163] | 7 | 110 | 10.4 | – | –
COc1ccc(F)cc1-c1cc(C(=O)/N=c2\[nH]c3ccccc3n2[C@H]2CC[C@@H](O)CC2)ccn1 [I-157] | 5 | 70.4 | 4.6 | – | –
CC(=O)N1CCC(c2ccc3c(c2)[nH]/c(=N\C(=O)c2cc(C)nc(-c4cnn(C)c4)c2)n3[C@H]2CC[C@@H](O)CC2)CC1 [I-205] | 8 | 1480 | 3.6 | – | –
CN(C)Cc1cccc(-c2cc(C(=O)/N=c3\[nH]c4ccccc4n3[C@H]3CC[C@@H](O)CC3)ccn2)c1 [I-114] | 2 | – | – | 6650 | 18.6
COc1c(C)cccc1-c1cc(C(=O)/N=c2\[nH]c3ccccc3n2[C@H]2CC[C@@H](O)CC2)ccn1 [I-162] | 6 | 1180 | 14.2 | – | –
CC(C)(O)Cn1/c(=N/C(=O)c2ccnc(-c3ccccc3)c2)[nH]c2ccccc21 [I-064] | 9 | > 4000 | 13.1 | > 100000 | 267
COc1ccccc1-c1cc(C(=O)/N=c2\[nH]c3cc(CN4CCOCC4)ccc3n2CC(C)(C)O)ccn1 [I-060] | 1 | 65.6 | 0.7 | – | –
Cc1ccc2c(c1)[nH]/c(=N\C(=O)c1ccnc(-c3cccc(CN(C)C)c3)c1)n2[C@H]1CC[C@@H](O)CC1 [I-111] | 4 | – | – | 7040 | 10.3
COc1ccccc1-c1cc(C(=O)/N=c2\[nH]c3cc(CN4CCOCC4)ccc3n2[C@H]2CCC[C@@H](O)C2)ccn1 [I-148] | 4 | 77.8 | 3.3 | – | –
Cc1ccc2c(c1)[nH]/c(=N\C(=O)c1ccnc(-c3cnn4cccnc34)c1)n2[C@H]1CC[C@@H](O)CC1 [I-110] | 1 | – | – | 4420 | 3.7
Cn1cc(-c2cc(C(=O)/N=c3\[nH]c4cc(CN5CCOCC5)ccc4n3[C@H]3CC[C@@H](O)CC3)cc(F)n2)cn1 [I-135] | 2 | 225 | 0.8 | – | –
O=C(/N=c1\[nH]c2ccccc2n1[C@H]1CC[C@@H](O)CC1)c1ccnc(-c2cccc(F)c2)c1 [I-185] | 23 | 3240 | 35.6 | – | –
COc1ccccc1-c1cc(C(=O)/N=c2\[nH]c3ccccc3n2[C@H]2CC[C@@H](O)CC2)ccn1 [I-108] | 3 | 19.3 | 0.6 | 1010 | 10.3
O=C(/N=c1\[nH]c2ccccc2n1[C@H]1CC[C@@H](O)CC1)c1ccnc(-c2ccccc2F)c1 [I-141] | 2 | 312 | 2 | – | –
O=C(/N=c1\[nH]c2ccccc2n1[C@H]1CC[C@@H](O)CC1)c1ccnc(-c2cnn(C(F)F)c2)c1 [I-201] | 2 | 231 | 1.2 | – | –

SMILES | IC50 [1] [nM] | IC50 (EGFR wt; [3]) [nM] | IC50 [2, 4] [nM] | IC50 (EGFR wt; [5]) [nM] | IC50 [2, 6] [nM]
O=C(/N=c1\[nH]c2ccccc2n1[C@H]1CC[C@@H](O)CC1)c1ccnc(-c2ccncc2)c1 [I-176] | 11 | 293 | 4 | – | –
CN(C)Cc1cccc(-c2cc(C(=O)/N=c3\[nH]c4ccccc4n3CC(C)(C)O)ccn2)c1 [I-102] | 2 | 213 | 1 | 6060 | 13.7
COc1ccccc1-c1cc(C(=O)/N=c2\[nH]c3ccccc3n2CC(C)(C)O)ccn1 [I-105] | 2 | – | 0.7 | 1800 | 10.3
Cc1cc(C(=O)/N=c2\[nH]c3ccccc3n2[C@@H]2C[C@H](O)C[C@H](O)C2)cc(-c2cnn(C)c2)n1 [I-206] | 37 | 12900 | 17.7 | – | –
CNc1cc(C(=O)/N=c2\[nH]c3ccccc3n2[C@H]2CC[C@@H](O)CC2)cc(-c2cnn(C)c2)n1 [I-215] | 14 | 8380 | 4.9 | – | –
Cc1cc(C(=O)/N=c2\[nH]c3ccc(CN4CCN(C)CC4)cc3n2CC(C)(C)O)cc(-c2cnn(C)c2)n1 [I-214] | 38 | 9660 | 10.1 | – | –
COc1ccccc1-c1cc(C(=O)/N=c2\[nH]c3ccccc3n2[C@H]2CCC[C@@H](O)C2)ccn1 [I-118] | 3 | 34.5 | 0.7 | – | –
COc1ccncc1-c1cc(C(=O)/N=c2\[nH]c3cc(CN4CCOCC4)ccc3n2[C@H]2CC[C@@H](O)CC2)cc(C#N)n1 [I-196] | 5 | 1400 | 3 | – | –
CC(=O)N1CCC(c2ccc3c(c2)[nH]/c(=N\C(=O)c2cc(C#N)nc(-c4cnn(C)c4)c2)n3[C@H]2CC[C@@H](O)CC2)CC1 [I-202] | 5 | 173 | 0.9 | – | –
CC(C)(O)Cn1/c(=N/C(=O)c2ccnc(-c3cccnc3)c2)[nH]c2cc(CCO)ccc21 [I-056] | 5 | > 100000 | 118 | – | –
Cn1cc(-c2cc(C(=O)/N=c3\[nH]c4ccccc4n3[C@H]3CCC[C@H](O)C3)ccn2)cn1 [I-116] | 1 | 104 | 0.7 | – | –
COc1ccccc1-c1cc(C(=O)/N=c2\[nH]c3cc(CN4CCOCC4)ccc3n2[C@H]2CCC[C@H](O)C2)ccn1 [I-181] | 12 | 31 | 1.7 | – | –
Cc1cc(C(=O)/N=c2\[nH]c3cc(CN4CCOCC4)ccc3n2[C@H]2CC[C@@H](O)CC2)cc(-c2cnn(C)c2)n1 [I-197] | 7 | 5010 | 2.7 | – | –
COCCCNc1ccc2c(c1)[nH]/c(=N\C(=O)c1ccnc(-c3cccnc3)c1)n2CC(C)(C)O [I-78] | 5 | – | – | 21100 | 95.2
Cn1cc(-c2cc(C(=O)/N=c3\[nH]c4ccccc4n3[C@H]3C[C@H](O)C[C@H](O)C3)ccn2)cn1 [I-207] | 26 | 539 | 3 | – | –
COc1c(F)cccc1-c1cc(C(=O)/N=c2\[nH]c3ccccc3n2[C@H]2CC[C@@H](O)CC2)ccn1 [I-175] | 10 | 557 | 13.6 | – | –
Cc1cccc(-c2cc(C(=O)/N=c3\[nH]c4ccccc4n3[C@H]3CC[C@@H](O)CC3)ccn2)c1 [I-161] | 6 | 205 | 2.4 | – | –
CC(C)(O)Cn1/c(=N/C(=O)c2ccnc(-c3cccnc3)c2)[nH]c2cc(CC(=O)N3CCCCC3)ccc21 [I-130] | 5 | – | – | > 100000 | 178
C#Cc1cc(C(=O)/N=c2\[nH]c3ccccc3n2[C@H]2CC[C@@H](O)CC2)cc(-c2cnn(C)c2)n1 [I-171] | 8 | 2970 | 8.8 | – | –
Cn1cc(-c2cc(C(=O)/N=c3\[nH]c4ccccc4n3[C@H]3CCC[C@H](O)C3)cc(C#N)n2)cn1 [I-210] | 9 | 664 | 4.3 | – | –
O=C(/N=c1\[nH]c2ccccc2n1[C@H]1CC[C@@H](O)CC1)c1ccnc(-c2ccc(F)cc2F)c1 [I-180] | 12 | 302 | 4.8 | – | –
Cn1cc(-c2cc(C(=O)/N=c3\[nH]c4ccccc4n3[C@H]3CC[C@@H](O)CC3)cc(N)n2)cn1 [I-211] | 1 | 249 | 0.3 | – | –
